Counter-ions that a name gives are not always drawn.
Tests used:
CDK9 = CDK9 (Homo sapiens, UniProt P50750); assay: In-vitro kinase inhibitory activity, CDK9 (selectivity); assay type: biochemical; conditions: read-out: IC50 (half maximal inhibitory concentration, nM) CDK9
[1] = system: human colon cancer COLO205 cells; assay: Growth inhibition of tumor cells cultured in vitro, CellTiter-Glo, COLO205; assay type: cell-based; conditions: Homo sapiens, COLO 205, 72 h, COLO205, 72 h, CellTiter-Glo
Text: (§1) Test drugs: Compounds of the present disclosure. Tumor cell strains: human colon cancer COLO205 cells and human breast cancer MCF-7 cells.
(§2) The growth inhibitory effects on human tumor cells COLO205 and MCF-7 cultured in vitro were observed by using a CellTiter-Glo Luminescent Cell Viability Assay Kit (Promega, Cat. No. G7572). Human tumor cells COLO205 and MCF-7 were both purchased from the American Type Culture Collection.
(§3) CellTiter-Glo Luminescent Cell Viability Assay: The previous cell culture medium was discarded, and the tumor cells were rinsed twice with PBS. An appropriate amount of trypsin (VWR, Cat. No. 0458-25G) was added to digest the tumor cells until most of the cells turned round and were detached from the wall. The trypsin digestion was terminated by adding an RPMI-1640 medium (COLO205; Gibco, Cat. No. A10491-01) containing 10% fetal bovine serum (Hyclone, Cat. No. SV30160.03) and MEM medium (MCF-7; Gibco, Cat. No. 10370-021) containing 10% fetal bovine serum and 0.01 mg/mL insulin, and the cells were gently pipetted with a pipette to completely suspend the tumor cells. After cell counting, a tumor cell suspension was prepared using a complete culture medium and the final concentration was 6.7×10^4 cells/mL. 90 μL of the tumor cell suspension was seeded in each well of a 96-well culture plate (6000 cells/well). The plate was then placed in an incubator with 5% CO2 at 37° C. and incubated for 24 h. A test drug was added by using an Agilent Bravo Automated Liquid Handling Platform, and 10 μL of the sample was added in each well. The assay was conducted in triplicate for each group. A compound of the present disclosure was dissolved in DMSO (BioRoYee, Cat. No. AF0231), and then the resulting solution was diluted to 10 μM/L, 3.33 μM/L, 1.11 μM/L, 0.37 μM/L, 0.123 μM/L, 0.041 μM/L, 0.0137 μM/L, 0.0046 μM/L, and 0.0015 μM/L with the culture medium. The concentration of DMSO was lower than 0.1%, and a culture medium containing 0.1% DMSO was added to the well which was set as a vehicle control group. The 96-well plate was placed in an incubator with 5% CO2 at 37° C. and incubated for 72 h. The 96-well plate to be tested was equilibrated at room temperature for 30 min, and 100 μL of Cell Titer-Glo reagent was added to each well. The contents of each well were mixed in an orbital shaker for 2 min to induce cell lysis, and the plate was incubated at room temperature for 10 min to achieve a constant value of fluorescent intensity. Finally, the chemiluminescence intensity was detected by TECAN M1000. Data were processed with Graphpad Prism 6.0 software. The growth curve of the cells was plotted. The cell growth inhibition rate of a drug was calculated, and the half maximal inhibitory concentration (IC50) of the drug was determined.

CDK6/CyclinD3 = molecular target: T1, CDK6/CyclinD3 (Homo sapiens, UniProt Q00534); assay: In-vitro kinase inhibitory activity, CDK6/CyclinD3 (Caliper EZ Reader II mobility shift); assay type: biochemical; conditions: CDK6/CyclinD3 20 nM, ATP 2 mM, Peptide 1 μM, 27° C., 120 min; read-out: IC50 (half maximal inhibitory concentration, nM) CDK6
T1 construct: purchased Wuxi Biortus Biosciences Co. Ltd
Procedure: The final volume for assay was 16 μL, and the reaction temperature was 27° C. […] The compound was dissolved in dimethyl sulfoxide (DMSO) to reach a concentration of 10 mM. […] 2 μL of the test compound solution was mixed with 5 μL of the kinase solution, and the mixture was incubated for 10 min. 5 μL of the mixed solution of the polypeptide substrate and ATP was then added. The mixture was incubated at 27° C. for 120 min, and then the reaction was terminated by adding 4 μL of EDTA with a concentration of 120 mM to each sample. […] Each assay was conducted in at least two replicates.
(§4) The final concentrations of the reagents in the assay were as follows. […] The reaction mixture was analyzed on a Caliper EZ Reader II by electrophoretic separation of the fluorescent substrate and the phosphorylated product. Data were calculated by using GraphPad Prism version 6.0 and IC50 values were obtained by adjusting the non-linear regression models of the dose response curves.

CDK4/CyclinD3 = molecular target: T2, CDK4/CyclinD3 (Homo sapiens, UniProt P11802); assay: In-vitro kinase inhibitory activity, CDK4/CyclinD3 (Caliper EZ Reader II mobility shift); assay type: biochemical; conditions: CDK4/CyclinD3 20 nM, ATP 2 mM, Peptide 1 μM, 27° C., 180 min; read-out: IC50 (half maximal inhibitory concentration, nM) CDK4
T2 construct: purchased Wuxi Biortus Biosciences Co. Ltd
Procedure: The final volume for assay was 16 μL, and the reaction temperature was 27° C. CDK4/CyclinD3 was produced by Wuxi Biortus Biosciences Co. Ltd. The concentration of the kinase was determined by the results of the optimization experiment. The kinase was diluted with an assay buffer (50 mM Tris HCl pH 8.0, 0.01% Tween 20, 50 μg/mL BSA, and 5 mM MgCl2) to obtain a corresponding kinase solution (2.4× concentration). The compound was dissolved in dimethyl sulfoxide (DMSO) to reach a concentration of 10 mM. […] 2 μL of the test compound solution was mixed with 5 μL of the kinase solution, and the mixture was incubated for 10 min. 5 μL of the mixed solution of the polypeptide substrate and ATP was then added. The mixture was incubated at 27° C. for 180 min, and then the reaction was terminated by adding 4 μL of EDTA with a concentration of 120 mM to each sample. […] Each assay was conducted in at least two replicates.
as §4

[2] = system: human breast cancer MCF-7 cells; assay: Growth inhibition of tumor cells cultured in vitro, CellTiter-Glo, MCF-7; assay type: cell-based; conditions: Homo sapiens, MCF7, 72 h, MCF-7, 72 h, CellTiter-Glo
Text: as §1, §2, §3

T2 sequence (P11802 whole entry, species assumed): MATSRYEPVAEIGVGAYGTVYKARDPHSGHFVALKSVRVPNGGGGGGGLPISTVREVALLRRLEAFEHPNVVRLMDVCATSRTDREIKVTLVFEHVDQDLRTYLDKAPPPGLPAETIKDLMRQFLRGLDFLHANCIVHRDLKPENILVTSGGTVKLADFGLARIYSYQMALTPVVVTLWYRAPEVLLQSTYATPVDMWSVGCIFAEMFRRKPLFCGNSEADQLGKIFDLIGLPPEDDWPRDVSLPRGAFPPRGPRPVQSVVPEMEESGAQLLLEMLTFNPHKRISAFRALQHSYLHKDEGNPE
T2 sequence (P30281 whole entry partner, species assumed): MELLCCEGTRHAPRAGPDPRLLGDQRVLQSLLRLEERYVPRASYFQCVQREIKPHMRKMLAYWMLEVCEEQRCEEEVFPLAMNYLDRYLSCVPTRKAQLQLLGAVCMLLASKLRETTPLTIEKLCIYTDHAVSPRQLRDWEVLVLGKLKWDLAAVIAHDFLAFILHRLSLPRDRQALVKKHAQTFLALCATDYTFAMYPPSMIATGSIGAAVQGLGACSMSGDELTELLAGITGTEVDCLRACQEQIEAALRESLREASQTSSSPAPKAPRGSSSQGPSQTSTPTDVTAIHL
T1 sequence (Q00534 whole entry, species assumed): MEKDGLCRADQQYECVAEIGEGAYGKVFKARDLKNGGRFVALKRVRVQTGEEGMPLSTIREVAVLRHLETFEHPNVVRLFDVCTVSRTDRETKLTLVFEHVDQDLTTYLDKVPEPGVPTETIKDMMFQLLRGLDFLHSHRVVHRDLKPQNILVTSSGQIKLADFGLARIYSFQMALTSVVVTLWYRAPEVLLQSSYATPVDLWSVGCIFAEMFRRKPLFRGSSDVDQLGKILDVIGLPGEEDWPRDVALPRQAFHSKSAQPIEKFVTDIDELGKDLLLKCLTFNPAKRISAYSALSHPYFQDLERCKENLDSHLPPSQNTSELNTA
T1 sequence (P30281 whole entry partner, species assumed): as the sequence (P30281 whole entry partner, species assumed) above
Chain of CDK9 (P50750 whole entry, species assumed): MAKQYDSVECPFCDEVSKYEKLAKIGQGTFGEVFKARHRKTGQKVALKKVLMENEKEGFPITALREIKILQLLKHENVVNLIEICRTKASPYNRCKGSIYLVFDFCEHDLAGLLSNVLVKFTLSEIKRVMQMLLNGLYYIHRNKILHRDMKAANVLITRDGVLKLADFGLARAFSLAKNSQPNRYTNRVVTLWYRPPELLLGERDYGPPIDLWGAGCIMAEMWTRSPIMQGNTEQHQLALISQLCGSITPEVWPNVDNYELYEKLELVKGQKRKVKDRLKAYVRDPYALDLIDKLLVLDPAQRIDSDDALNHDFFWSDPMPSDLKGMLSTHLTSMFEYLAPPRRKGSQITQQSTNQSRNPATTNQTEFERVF
Chain of CDK9 (O60563 whole entry partner, species assumed): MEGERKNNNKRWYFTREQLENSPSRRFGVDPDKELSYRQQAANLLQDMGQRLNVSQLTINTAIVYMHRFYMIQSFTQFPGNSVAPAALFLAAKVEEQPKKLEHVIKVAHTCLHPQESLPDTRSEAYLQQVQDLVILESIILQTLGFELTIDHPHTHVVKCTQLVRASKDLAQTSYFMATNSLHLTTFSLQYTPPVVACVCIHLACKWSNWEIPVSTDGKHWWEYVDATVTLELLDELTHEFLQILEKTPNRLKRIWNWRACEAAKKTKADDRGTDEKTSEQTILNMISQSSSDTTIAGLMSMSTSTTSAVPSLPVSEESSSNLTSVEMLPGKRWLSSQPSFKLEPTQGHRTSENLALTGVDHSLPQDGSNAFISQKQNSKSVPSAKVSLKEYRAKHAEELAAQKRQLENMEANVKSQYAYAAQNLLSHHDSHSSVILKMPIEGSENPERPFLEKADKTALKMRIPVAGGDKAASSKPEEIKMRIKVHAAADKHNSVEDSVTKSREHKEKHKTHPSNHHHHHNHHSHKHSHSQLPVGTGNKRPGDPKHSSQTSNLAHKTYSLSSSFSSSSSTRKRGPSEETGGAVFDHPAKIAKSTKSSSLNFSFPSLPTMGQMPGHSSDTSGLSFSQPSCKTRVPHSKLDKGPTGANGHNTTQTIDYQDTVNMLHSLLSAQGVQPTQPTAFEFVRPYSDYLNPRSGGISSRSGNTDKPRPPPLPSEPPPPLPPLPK

SMILES | IC50 (CDK9) | IC50 [1] | IC50 (CDK6/CyclinD3) | IC50 (CDK4/CyclinD3) | IC50 [2]
CC(=O)c1c(C)c2cnc(Nc3ccc(N4CCN(CCN5CCC(CC6CCN(c7ccc8c(c7Cl)CN(C7CCC(=O)NC7=O)C8=O)CC6)CC5)CC4)cn3)nc2n(C2CCCC2)c1=O (stereo not shown) [Compound 39, 3-(5-(4-((1-(2-(4-(6-((6-acetyl-8-cyclopentyl-5-methyl-7-oxo-7,8-dihydropyrido[2,3-d]pyrimidin-2-yl)amino)pyridin-3-yl)piperazin-1-yl)ethyl)piperidin-4-yl)methyl)piperidin-1-yl)-4-chloro-1-oxoisoindolin-2-yl)piperidine-2,6-dione dihydrochloride] | 5760 nM | 440 nM | 11.3 nM | 56.1 nM | 
CN(C)C(=O)c1cc2cnc(Nc3ccc(N4CCN(CCN5CCC(CN6CCN(c7ccc8c(c7)CN([C@H]7CCC(=O)NC7=O)C8=O)CC6)CC5)CC4)cn3)nc2n1C1CCCC1 [Compound 29, (S)-7-cyclopentyl-2-((5-(4-(2-(4-((4-(2-(2,6-dioxopiperidin-3-yl)-1-oxoisoindolin-5-yl)piperazin-1-yl)methyl)piperidin-1-yl)ethyl)piperazin-1-yl)pyridin-2-yl)amino)-N,N-dimethyl-7H-pyrrolo[2,3-d]pyrimidin-6-amide trihydrochloride] | 3650 nM |  | 42.1 nM | 37.8 nM | 106 nM
CC(=O)c1c(C)c2cnc(Nc3ccc(N4CCC(CCN5CCC(CC6CCN(c7ccc8c(c7)CN(C7CCC(=O)NC7=O)C8=O)CC6)CC5)CC4)cn3)nc2n(C2CCCC2)c1=O (stereo not shown) [Compound 42, 3-(5-(4-((1-(2-(1-(6-((6-acetyl-8-cyclopentyl-5-methyl-7-oxo-7,8-dihydropyrido[2,3-d]pyrimidin-2-yl)amino)pyridin-3-yl)piperidin-4-yl)ethyl)piperidin-4-yl)methyl)piperidin-1-yl)-1-oxoisoindolin-2-yl)piperidine-2,6-dione hydrochloride] | > 10000 nM | 194 nM | 19.2 nM | 33.3 nM | 
CN(C)C(=O)c1cc2cnc(Nc3ccc(N4CCN(CCN5CCC(CN6CCN(c7ccc8c(c7)CN(C7CCC(=O)NC7=O)C8=O)CC6)CC5)CC4)cn3)nc2n1C1CCCC1 (stereo not shown) [Compound 26, 7-cyclopentyl-2-((5-(4-(2-(4-((4-(2-(2,6-dioxopiperidin-3-yl)-1-oxoisoindolin-5-yl)piperazin-1-yl)methyl)piperidin-1-yl)ethyl)piperazin-1-yl)pyridin-2-yl)amino)-N,N-dimethyl-7H-pyrrolo[2,3-d]pyrimidin-6-amide trihydrochloride] | 4000 nM |  | 55.2 nM | 38.4 nM | 
CC(=O)c1c(C)c2cnc(Nc3ccc(N4CCN(CCN5CCC(CC6CCN(c7ccc8c(c7)CN([C@H]7CCC(=O)NC7=O)C8=O)CC6)CC5)CC4)cn3)nc2n(C2CCCC2)c1=O [Compound 38, (S)-3-(5-(4-((1-(2-(4-(6-((6-acetyl-8-cyclopentyl-5-methyl-7-oxo-7,8-dihydropyrido[2,3-d]pyrimidin-2-yl)amino)pyridin-3-yl)piperazin-1-yl)ethyl)piperidin-4-yl)methyl)piperidin-1-yl)-1-oxoisoindolin-2-yl)piperidine-2,6-dione dihydrochloride] | 1400 nM | 76.2 nM | 6.73 nM | 8.88 nM | 
CC(=O)c1c(C)c2cnc(Nc3ccc(N4CCN(CCC5CCN(c6ccc7c(c6)CN(C6CCC(=O)NC6=O)C7=O)CC5)CC4)cn3)nc2n(C2CCCC2)c1=O (stereo not shown) [Compound 13, 3-(5-(4-(2-(4-(6-((6-acetyl-8-cyclopentyl-5-methyl-7-oxo-7,8-dihydropyrido[2,3-d]pyrimidin-2-yl)amino)pyridin-3-yl)piperazin-1-yl)ethyl)piperidin-1-yl)-1-oxoisoindolin-2-yl)piperidine-2,6-dione] | > 10000 nM | 59.4 nM | 26.6 nM | 71.1 nM | 
CC(=O)c1c(C)c2cnc(Nc3ccc(N4CCN(CCN5CCN(c6ccc7c(c6Cl)CN(C6CCC(=O)NC6=O)C7=O)CC5)CC4)cn3)nc2n(C2CCCC2)c1=O (stereo not shown) [Compound 21, 3-(5-(4-(2-(4-(6-((6-acetyl-8-cyclopentyl-5-methyl-7-oxo-7,8-dihydropyrido[2,3-d]pyrimidin-2-yl)amino)pyridin-3-yl)piperazin-1-yl)ethyl)piperazin-1-yl)-4-chloro-1-oxoisoindolin-2-yl)piperidine-2,6-dione dihydrochloride] | 3950 nM |  | 37.1 nM | 53.2 nM | 
CC(=O)c1c(C)c2cnc(Nc3ccc(N4CCN(CCN5CCC(CC6CCN(c7ccc8c(c7Cl)CN([C@H]7CCC(=O)NC7=O)C8=O)CC6)CC5)CC4)cn3)nc2n(C2CCCC2)c1=O [Compound 40, (S)-3-(5-(4-((1-(2-(4-(6-((6-acetyl-8-cyclopentyl-5-methyl-7-oxo-7,8-dihydropyrido[2,3-d]pyrimidin-2-yl)amino)pyridin-3-yl)piperazin-1-yl)ethyl)piperidin-4-yl)methyl)piperidin-1-yl)-4-chloro-1-oxoisoindolin-2-yl)piperidine-2,6-dione dihydrochloride] | 6810 nM | 50.9 nM | 23.3 nM | 55 nM | 
CC(=O)c1c(C)c2cnc(Nc3ccc(N4CCN(CCN5CCC(CN6CCN(c7ccc8c(c7Cl)CN(C7CCC(=O)NC7=O)C8=O)CC6)CC5)CC4)cn3)nc2n(C2CCCC2)c1=O (stereo not shown) [Compound 36, 3-(5-(4-((1-(2-(4-(6-((6-acetyl-8-cyclopentyl-5-methyl-7-oxo-7,8-dihydropyrido[2,3-d]pyrimidin-2-yl)amino)pyridin-3-yl)piperazin-1-yl)ethyl)piperidin-4-yl)methyl)piperazin-1-yl)-4-chloro-1-oxoisoindolin-2-yl)piperidine-2,6-dione trihydrochloride] | 1480 nM | 95.9 nM | 4.44 nM | 12.7 nM | 
COc1cc(N2CCN(CCN3CCN(c4ccc(Nc5ncc6c(C)c(C(C)=O)c(=O)n(C7CCCC7)c6n5)nc4)CC3)CC2)cc2c1C(=O)N(C1CCC(=O)NC1=O)C2 (stereo not shown) [Compound 17, 3-(5-(4-(2-(4-(6-((6-acetyl-8-cyclopentyl-5-methyl-7-oxo-7,8-dihydropyrido[2,3-d]pyrimidin-2-yl)amino)pyridin-3-yl)piperazin-1-yl)ethyl)piperazin-1-yl)-7-methoxy-1-oxoisoindolin-2-yl)piperidine-2,6-dione dihydrochloride] | > 10000 nM |  | 29.6 nM | 67.1 nM | 
